Like-named read-outs stand apart in the source and are kept apart here.
Experiments:
Assay in all cases: ActivX kinase probe assay (human PBMC)
Type in all cases: binding
[1] = target: MLKL (Homo sapiens (Human), UniProt Q8NB16); conditions: read-out: percent inhibition
[2] = test system: PITSLRE
[3] = target: RSK2 domain1 (Homo sapiens (Human), UniProt P51812); conditions: read-out: percent inhibition
[4] = test system: FYN, SRC, YES
[5] = target: PKD2 (Homo sapiens (Human), UniProt Q9BZL6); conditions: read-out: percent inhibition
[6] = target: TAO2 (Homo sapiens (Human), UniProt Q9UL54); conditions: read-out: percent inhibition
[7] = target: PIP4K2C (Homo sapiens (Human), UniProt Q8TBX8)
[8] = test system: MST4, YSK1
[9] = target: PIP5K3 (Homo sapiens (Human), UniProt Q9Y2I7); conditions: read-out: percent inhibition
[10] = target: ZC2/TNIK (Homo sapiens (Human), UniProt Q9UKE5); conditions: read-out: percent inhibition
[11] = target: CDK2 (Homo sapiens (Human), UniProt P24941); conditions: read-out: percent inhibition
[12] = target: LOK (Homo sapiens (Human), UniProt O94804); conditions: read-out: percent inhibition
[13] = target: FER (Homo sapiens (Human), UniProt P16591); conditions: read-out: percent inhibition
[14] = target: JAK3 domain2 (Homo sapiens (Human), UniProt P52333); conditions: read-out: percent inhibition
[15] = target: RSK1 domain2 (Homo sapiens (Human), UniProt Q15418); conditions: read-out: percent inhibition
[16] = target: p70S6Kb (Homo sapiens (Human), UniProt Q9UBS0); conditions: read-out: percent inhibition
[17] = target: PIK3CG (Homo sapiens (Human), UniProt P48736); conditions: read-out: percent inhibition
[18] = target: PI4KB (Homo sapiens (Human), UniProt Q9UBF8); conditions: read-out: percent inhibition
[19] = target: SLK (Homo sapiens (Human), UniProt Q9H2G2); conditions: read-out: percent inhibition
[20] = target: FYN (Homo sapiens (Human), UniProt P06241); conditions: read-out: percent inhibition
[21] = target: CDC2 (Homo sapiens (Human), UniProt P06493); conditions: read-out: percent inhibition
[22] = target: eEF2K (Homo sapiens (Human), UniProt O00418); conditions: read-out: percent inhibition
[23] = target: IKKa (Homo sapiens (Human), UniProt O15111); conditions: read-out: percent inhibition
[24] = test system: JNK1, JNK2, JNK3
[25] = target: IRAK3 (Homo sapiens (Human), UniProt Q9Y616); conditions: read-out: percent inhibition
[26] = target: AKT1 (Homo sapiens (Human), UniProt P31749); conditions: read-out: percent inhibition
[27] = target: MAP2K3 (Homo sapiens (Human), UniProt P46734); conditions: read-out: percent inhibition
[28] = target: ACK (Homo sapiens (Human), UniProt Q07912); conditions: read-out: percent inhibition
[29] = target: NuaK2 (Homo sapiens (Human), UniProt Q9H093); conditions: read-out: percent inhibition
[30] = target: IRAK1 (Homo sapiens (Human), UniProt P51617); conditions: read-out: percent inhibition
[31] = target: GCK (Homo sapiens (Human), UniProt Q12851); conditions: read-out: percent inhibition
[32] = test system: Wnk1, Wnk2, Wnk3
[33] = target: LYN (Homo sapiens (Human), UniProt P07948); conditions: read-out: percent inhibition
[34] = target: PIK3CB (Homo sapiens (Human), UniProt P42338); conditions: read-out: percent inhibition
[35] = target: LRRK2 (Homo sapiens (Human), UniProt Q5S007); conditions: read-out: percent inhibition
[36] = read-out: percent inhibition, PIP4K2C (first line of two)
[37] = read-out: percent inhibition, PIP4K2C (second line of two)

Sequence of PIP4K2C (Q8TBX8 whole entry): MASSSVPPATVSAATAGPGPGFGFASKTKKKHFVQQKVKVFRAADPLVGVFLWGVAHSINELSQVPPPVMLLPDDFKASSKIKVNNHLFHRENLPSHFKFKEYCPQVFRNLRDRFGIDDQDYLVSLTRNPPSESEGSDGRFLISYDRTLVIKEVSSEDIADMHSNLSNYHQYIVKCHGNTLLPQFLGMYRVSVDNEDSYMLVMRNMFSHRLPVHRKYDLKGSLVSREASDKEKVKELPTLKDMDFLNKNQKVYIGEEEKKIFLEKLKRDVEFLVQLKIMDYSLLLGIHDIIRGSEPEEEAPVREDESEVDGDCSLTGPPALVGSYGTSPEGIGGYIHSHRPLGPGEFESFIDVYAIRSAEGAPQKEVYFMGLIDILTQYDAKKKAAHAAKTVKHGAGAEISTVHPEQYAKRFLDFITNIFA
Sequence of p70S6Kb (Q9UBS0 whole entry): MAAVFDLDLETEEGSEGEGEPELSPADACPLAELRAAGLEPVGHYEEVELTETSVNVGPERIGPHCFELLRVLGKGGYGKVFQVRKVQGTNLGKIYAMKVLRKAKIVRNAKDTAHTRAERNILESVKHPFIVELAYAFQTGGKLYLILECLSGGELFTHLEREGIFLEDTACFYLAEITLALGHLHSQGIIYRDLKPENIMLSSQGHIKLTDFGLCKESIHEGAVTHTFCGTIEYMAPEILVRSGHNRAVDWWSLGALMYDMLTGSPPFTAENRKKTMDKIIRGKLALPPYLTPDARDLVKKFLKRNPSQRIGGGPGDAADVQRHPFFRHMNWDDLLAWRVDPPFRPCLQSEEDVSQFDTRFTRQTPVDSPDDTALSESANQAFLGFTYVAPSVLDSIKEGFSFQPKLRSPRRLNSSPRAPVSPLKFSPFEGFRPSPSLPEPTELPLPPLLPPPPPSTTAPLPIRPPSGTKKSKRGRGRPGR
Sequence of LRRK2 (Q5S007 whole entry): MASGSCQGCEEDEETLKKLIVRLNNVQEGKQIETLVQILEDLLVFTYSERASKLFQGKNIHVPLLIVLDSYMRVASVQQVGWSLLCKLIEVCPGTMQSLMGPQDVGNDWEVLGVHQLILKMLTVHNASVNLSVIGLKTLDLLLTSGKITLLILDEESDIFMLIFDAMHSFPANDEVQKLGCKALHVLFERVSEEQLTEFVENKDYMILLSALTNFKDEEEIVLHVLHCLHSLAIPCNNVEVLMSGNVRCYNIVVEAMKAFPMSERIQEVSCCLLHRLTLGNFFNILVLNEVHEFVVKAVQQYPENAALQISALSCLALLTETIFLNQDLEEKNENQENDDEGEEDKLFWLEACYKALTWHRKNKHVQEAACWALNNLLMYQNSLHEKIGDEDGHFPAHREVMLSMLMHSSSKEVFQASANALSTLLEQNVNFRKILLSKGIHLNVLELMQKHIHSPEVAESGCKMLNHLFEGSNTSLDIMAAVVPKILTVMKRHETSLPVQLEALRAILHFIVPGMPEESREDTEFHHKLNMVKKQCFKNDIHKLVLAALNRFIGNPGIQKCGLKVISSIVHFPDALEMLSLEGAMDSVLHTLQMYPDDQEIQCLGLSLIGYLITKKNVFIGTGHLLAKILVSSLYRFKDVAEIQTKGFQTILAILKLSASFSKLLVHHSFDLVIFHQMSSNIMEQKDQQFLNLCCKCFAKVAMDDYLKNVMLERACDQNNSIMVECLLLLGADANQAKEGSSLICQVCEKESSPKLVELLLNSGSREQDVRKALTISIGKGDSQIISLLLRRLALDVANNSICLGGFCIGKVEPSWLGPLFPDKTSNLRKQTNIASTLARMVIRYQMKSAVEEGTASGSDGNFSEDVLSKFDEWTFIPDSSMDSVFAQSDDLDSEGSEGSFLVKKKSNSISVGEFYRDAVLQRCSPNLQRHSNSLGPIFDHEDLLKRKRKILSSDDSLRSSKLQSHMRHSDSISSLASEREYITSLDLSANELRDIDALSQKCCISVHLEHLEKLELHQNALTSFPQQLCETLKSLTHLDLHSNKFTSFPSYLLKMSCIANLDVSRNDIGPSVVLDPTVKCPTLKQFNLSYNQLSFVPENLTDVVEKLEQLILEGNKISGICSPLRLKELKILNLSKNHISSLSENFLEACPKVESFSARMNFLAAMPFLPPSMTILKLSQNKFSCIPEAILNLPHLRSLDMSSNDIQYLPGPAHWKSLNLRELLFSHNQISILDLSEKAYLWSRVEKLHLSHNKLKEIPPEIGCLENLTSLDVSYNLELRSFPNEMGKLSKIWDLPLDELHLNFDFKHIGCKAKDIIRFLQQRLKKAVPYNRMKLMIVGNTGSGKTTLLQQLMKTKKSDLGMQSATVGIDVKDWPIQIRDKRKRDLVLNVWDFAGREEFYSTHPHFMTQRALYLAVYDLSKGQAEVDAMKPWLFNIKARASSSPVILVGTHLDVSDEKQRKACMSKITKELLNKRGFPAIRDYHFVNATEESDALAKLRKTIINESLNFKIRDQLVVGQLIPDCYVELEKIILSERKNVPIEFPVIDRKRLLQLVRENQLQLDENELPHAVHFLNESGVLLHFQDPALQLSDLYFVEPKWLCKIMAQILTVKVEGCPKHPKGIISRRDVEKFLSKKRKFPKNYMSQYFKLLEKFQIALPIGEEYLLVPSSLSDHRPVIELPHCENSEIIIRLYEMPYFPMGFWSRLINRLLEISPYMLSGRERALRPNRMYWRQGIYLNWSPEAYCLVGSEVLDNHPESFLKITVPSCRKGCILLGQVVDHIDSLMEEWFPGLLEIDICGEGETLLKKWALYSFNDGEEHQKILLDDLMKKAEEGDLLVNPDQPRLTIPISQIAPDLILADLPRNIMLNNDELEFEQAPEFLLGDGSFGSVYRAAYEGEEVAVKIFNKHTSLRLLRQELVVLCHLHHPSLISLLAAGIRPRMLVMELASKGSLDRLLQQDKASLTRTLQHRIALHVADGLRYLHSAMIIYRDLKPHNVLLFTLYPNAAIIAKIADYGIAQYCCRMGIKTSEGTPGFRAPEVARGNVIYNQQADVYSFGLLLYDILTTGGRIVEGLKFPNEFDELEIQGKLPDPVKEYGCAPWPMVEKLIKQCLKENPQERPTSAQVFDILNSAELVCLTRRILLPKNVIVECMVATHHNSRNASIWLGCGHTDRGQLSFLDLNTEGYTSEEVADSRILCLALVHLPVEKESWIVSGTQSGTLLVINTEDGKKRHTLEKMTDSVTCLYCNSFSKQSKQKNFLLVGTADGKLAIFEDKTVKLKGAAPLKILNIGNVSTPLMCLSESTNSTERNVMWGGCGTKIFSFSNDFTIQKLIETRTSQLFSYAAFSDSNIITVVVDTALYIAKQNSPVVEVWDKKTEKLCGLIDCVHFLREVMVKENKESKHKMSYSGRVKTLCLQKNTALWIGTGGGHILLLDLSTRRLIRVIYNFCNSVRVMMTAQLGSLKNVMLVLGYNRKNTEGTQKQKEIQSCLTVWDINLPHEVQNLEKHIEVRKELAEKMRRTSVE
Sequence of IRAK1 (P51617 whole entry): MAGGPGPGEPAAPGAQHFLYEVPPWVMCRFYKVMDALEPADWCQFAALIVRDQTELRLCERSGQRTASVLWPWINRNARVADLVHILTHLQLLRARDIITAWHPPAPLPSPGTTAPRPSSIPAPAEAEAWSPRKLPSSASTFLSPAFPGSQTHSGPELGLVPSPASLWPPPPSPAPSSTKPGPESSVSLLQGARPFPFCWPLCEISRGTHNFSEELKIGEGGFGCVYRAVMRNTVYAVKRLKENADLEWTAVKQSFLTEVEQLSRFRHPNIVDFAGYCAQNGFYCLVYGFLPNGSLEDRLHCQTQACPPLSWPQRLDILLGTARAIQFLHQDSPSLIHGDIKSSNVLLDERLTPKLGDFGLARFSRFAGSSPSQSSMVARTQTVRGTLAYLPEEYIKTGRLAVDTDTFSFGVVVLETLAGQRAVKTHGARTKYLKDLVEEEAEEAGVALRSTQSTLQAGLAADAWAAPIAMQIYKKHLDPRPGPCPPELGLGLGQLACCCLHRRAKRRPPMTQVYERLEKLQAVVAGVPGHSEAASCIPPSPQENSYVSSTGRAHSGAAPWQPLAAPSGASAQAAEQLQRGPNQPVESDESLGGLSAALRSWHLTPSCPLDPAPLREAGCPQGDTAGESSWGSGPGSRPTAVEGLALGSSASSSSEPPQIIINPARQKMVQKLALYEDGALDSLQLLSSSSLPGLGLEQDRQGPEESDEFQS
Sequence of RSK2 domain1 (P51812 whole entry, the tested form may be a part): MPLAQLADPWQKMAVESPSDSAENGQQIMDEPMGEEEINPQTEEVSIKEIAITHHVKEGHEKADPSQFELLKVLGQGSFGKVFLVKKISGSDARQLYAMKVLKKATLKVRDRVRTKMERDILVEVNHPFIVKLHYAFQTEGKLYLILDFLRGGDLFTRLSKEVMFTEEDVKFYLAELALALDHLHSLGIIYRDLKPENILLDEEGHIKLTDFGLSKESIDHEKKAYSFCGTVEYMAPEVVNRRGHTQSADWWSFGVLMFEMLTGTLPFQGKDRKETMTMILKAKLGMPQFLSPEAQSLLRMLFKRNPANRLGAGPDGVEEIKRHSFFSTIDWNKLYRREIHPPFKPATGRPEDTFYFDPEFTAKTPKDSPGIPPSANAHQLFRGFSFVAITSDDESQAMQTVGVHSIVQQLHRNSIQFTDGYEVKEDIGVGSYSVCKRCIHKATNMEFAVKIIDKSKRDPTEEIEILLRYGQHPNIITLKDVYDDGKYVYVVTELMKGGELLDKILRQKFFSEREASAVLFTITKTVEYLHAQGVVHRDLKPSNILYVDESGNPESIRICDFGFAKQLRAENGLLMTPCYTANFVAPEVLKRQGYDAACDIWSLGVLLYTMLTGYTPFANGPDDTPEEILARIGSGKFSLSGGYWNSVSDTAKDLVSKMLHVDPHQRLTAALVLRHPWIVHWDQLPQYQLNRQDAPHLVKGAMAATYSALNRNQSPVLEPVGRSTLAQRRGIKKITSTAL

N#Cc1cccc(-c2c[nH]c3ncnc(N4CCOCC4)c23)c1 [Example 4, 3-[4-(Morpholin-4-yl)-7H-pyrrolo[2,3-d]pyrimidin-5-yl]benzonitrile]
inhibition at 0.1 µM [1]: -10.1%
inhibition at 1 µM [1]: 14.5%
percent inhibition ([2]; 0.1 μM): −12.4%
percent inhibition ([2]; 1 μM): 10.7%
inhibition at 0.1 µM [3]: -6%
inhibition at 1 µM [3]: -11.2%
percent inhibition ([4]; 0.1 μM): −22.8%
percent inhibition ([4]; 1 μM): −8.8%
inhibition at 0.1 µM [5]: 0.7%
inhibition at 1 µM [5]: 9.4%
inhibition at 0.1 µM [6]: -12.7%
inhibition at 1 µM [6]: -2.5%
inhibition at 0.1 µM [7, 36]: 3.1%
inhibition at 1 µM [7, 36]: 58.4%
inhibition at 0.1 µM [7, 37]: 9.3%
inhibition at 1 µM [7, 37]: 54.3%
percent inhibition ([8]; 0.1 μM): 11.9%
percent inhibition ([8]; 1 μM): 60.7%
inhibition at 0.1 µM [9]: -11.2%
inhibition at 1 µM [9]: 21.6%
inhibition at 0.1 µM [10]: -7.9%
inhibition at 1 µM [10]: 29.2%
inhibition at 0.1 µM [11]: 11%
inhibition at 1 µM [11]: 9.2%
inhibition at 0.1 µM [12]: 11.9%
inhibition at 1 µM [12]: 53.6%
inhibition at 0.1 µM [13]: -26.4%
inhibition at 1 µM [13]: 1.6%
inhibition at 0.1 µM [14]: 6.9%
inhibition at 1 µM [14]: 6.8%
inhibition at 0.1 µM [15]: 2.7%
inhibition at 1 µM [15]: 55.8%
inhibition at 0.1 µM [16]: 11.4%
inhibition at 1 µM [16]: 18.5%
inhibition at 0.1 µM [17]: -20.4%
inhibition at 1 µM [17]: -5.6%
inhibition at 0.1 µM [18]: -7.4%
inhibition at 1 µM [18]: 4.9%
inhibition at 0.1 µM [19]: 10.5%
inhibition at 1 µM [19]: 60.7%
inhibition at 0.1 µM [20]: -1.9%
inhibition at 1 µM [20]: -9.1%
inhibition at 0.1 µM [21]: -6.7%
inhibition at 1 µM [21]: 12.9%
inhibition at 0.1 µM [22]: -27.1%
inhibition at 1 µM [22]: 2.8%
inhibition at 0.1 µM [23]: -12.1%
inhibition at 1 µM [23]: -6.6%
percent inhibition ([24]; 0.1 μM): −5.3%
percent inhibition ([24]; 1 μM): 5.4%
inhibition at 0.1 µM [25]: 29.8%
inhibition at 1 µM [25]: 33.7%
inhibition at 0.1 µM [26]: -8.8%
inhibition at 1 µM [26]: -6.3%
inhibition at 0.1 µM [27]: -12.5%
inhibition at 1 µM [27]: 6.2%
inhibition at 0.1 µM [28]: 0.8%
inhibition at 1 µM [28]: 7.7%
inhibition at 0.1 µM [29]: -11.9%
inhibition at 1 µM [29]: 18.1%
inhibition at 0.1 µM [30]: -2.9%
inhibition at 1 µM [30]: 2.1%
inhibition at 0.1 µM [31]: 3.6%
inhibition at 1 µM [31]: 31.2%
percent inhibition ([32]; 0.1 μM): 1.7%
percent inhibition ([32]; 1 μM): −6%
inhibition at 0.1 µM [33]: -5.4%
inhibition at 1 µM [33]: 0.8%
inhibition at 0.1 µM [34]: 0.5%
inhibition at 1 µM [34]: -2.5%
inhibition at 0.1 µM ([35]; 0.1 μM): 79.9%
inhibition at 1 µM ([35]; 1 μM): 94.1%

— patent publication US9156845B2, “4-(substituted amino)-7H-pyrrolo[2,3-d] pyrimidines as LRRK2 inhibitors” (Pfizer Inc., priority 2012, dated 2015)
